Test results: US9492437B2, “Otamixaban for treatment of elderly and renal impaired non-ST elevation myocardial infarction patients” (SANOFI, priority 2009, dated 2016)
Read-outs that look alike come from different tables or passages of the source.

How the values were obtained:
thrombosis [1] = settings: porcine; cited from earlier work
factor Xa = target: T1, factor Xa (Homo sapiens, UniProt P00742); settings: patients with stable coronary artery disease taking usual comedication, some with mild renal impairment; cited from earlier work
T1 construct: host or cells: patients (endogenous enzyme)
T1 sequence (P00742 235-488 limits assumed): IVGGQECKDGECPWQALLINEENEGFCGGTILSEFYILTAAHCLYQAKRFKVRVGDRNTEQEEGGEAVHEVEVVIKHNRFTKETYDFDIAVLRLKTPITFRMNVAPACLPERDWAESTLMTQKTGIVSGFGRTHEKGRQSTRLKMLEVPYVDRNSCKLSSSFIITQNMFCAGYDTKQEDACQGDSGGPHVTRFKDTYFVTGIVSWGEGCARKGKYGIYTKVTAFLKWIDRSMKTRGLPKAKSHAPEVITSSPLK
T1 sequence (P00742 41-179 partner limits assumed): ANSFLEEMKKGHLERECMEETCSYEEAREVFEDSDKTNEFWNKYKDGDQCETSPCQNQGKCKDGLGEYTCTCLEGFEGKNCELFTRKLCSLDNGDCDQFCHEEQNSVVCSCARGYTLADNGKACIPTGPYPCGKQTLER

thrombosis [2] = settings: canine; cited from earlier work
[3] = target: factor Xa assembled in the prothrombinase complex (Factor Xa, Factor Va, calcium and phospholipid) (Homo sapiens, UniProt P00742); settings: cited from earlier work
Chain of factor Xa assembled in the prothrombinase complex (Factor Xa, Factor Va, calcium and phospholipid) (P00742 235-488 limits assumed): as the sequence (P00742 235-488 limits assumed) above
Chain of factor Xa assembled in the prothrombinase complex (Factor Xa, Factor Va, calcium and phospholipid) (P00742 41-179 limits assumed): as the sequence (P00742 41-179 partner limits assumed) above
Chain of factor Xa assembled in the prothrombinase complex (Factor Xa, Factor Va, calcium and phospholipid) (P12259 29-737 partner limits assumed): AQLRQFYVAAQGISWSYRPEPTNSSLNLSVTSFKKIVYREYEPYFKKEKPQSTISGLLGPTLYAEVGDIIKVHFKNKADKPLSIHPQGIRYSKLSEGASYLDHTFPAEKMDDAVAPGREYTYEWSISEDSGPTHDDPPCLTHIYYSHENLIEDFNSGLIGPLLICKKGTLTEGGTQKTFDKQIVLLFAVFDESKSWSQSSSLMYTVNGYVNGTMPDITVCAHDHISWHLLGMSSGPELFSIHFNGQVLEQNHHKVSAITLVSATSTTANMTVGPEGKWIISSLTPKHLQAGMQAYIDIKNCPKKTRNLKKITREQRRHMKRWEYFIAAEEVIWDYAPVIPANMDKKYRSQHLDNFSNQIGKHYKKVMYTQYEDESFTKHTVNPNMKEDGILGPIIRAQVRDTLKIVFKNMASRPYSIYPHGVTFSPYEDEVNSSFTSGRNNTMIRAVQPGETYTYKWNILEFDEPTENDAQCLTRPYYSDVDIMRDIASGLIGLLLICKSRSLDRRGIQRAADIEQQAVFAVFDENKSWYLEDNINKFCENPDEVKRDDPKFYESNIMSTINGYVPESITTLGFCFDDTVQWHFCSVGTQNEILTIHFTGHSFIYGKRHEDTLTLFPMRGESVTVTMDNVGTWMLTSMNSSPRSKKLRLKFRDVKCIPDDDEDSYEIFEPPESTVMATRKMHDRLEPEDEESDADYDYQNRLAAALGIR
Chain of factor Xa assembled in the prothrombinase complex (Factor Xa, Factor Va, calcium and phospholipid) (P12259 1574-2224 partner limits assumed): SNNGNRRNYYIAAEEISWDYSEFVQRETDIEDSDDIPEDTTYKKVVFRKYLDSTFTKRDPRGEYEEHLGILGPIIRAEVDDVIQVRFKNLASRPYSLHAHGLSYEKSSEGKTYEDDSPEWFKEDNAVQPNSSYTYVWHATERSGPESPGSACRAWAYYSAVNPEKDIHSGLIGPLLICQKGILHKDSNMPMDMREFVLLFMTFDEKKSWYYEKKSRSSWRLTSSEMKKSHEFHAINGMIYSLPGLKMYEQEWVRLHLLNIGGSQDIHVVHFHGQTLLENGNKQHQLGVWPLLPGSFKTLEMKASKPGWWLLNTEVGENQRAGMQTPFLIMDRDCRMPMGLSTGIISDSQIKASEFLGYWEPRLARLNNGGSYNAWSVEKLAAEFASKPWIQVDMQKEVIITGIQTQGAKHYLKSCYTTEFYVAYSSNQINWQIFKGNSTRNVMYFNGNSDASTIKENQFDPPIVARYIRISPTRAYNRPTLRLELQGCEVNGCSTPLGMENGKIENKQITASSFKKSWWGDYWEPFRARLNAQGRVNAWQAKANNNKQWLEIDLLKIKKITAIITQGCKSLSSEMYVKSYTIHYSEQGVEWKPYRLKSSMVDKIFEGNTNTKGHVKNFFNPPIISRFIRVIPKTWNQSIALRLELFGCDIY

[4] = subgroup pharmacokinetic analysis (concentration of otamixaban); type: in vivo, human; settings: dose 4 (0.140 mg/Kg/h)
thrombosis [5] = settings: rodent; cited from earlier work
free factor Xa = free factor Xa (Homo sapiens, UniProt P00742); settings: cited from earlier work
Chain of free factor Xa (P00742 235-488 limits assumed): as the sequence (P00742 235-488 limits assumed) above
Chain of free factor Xa (P00742 41-179 limits assumed): as the sequence (P00742 41-179 partner limits assumed) above

[6] = system: prothrombin fragments 1+2; settings: highest dose regimen; cited from earlier work
[7] = system: patients with Unstable angina/Non ST segment Elevation Myocardial infarction; experiment: randomized, double-blind triple-dummy trial, efficacy (endpoint of the study: all-cause death and new myocardial infarction); type: in vivo, human
From the text: The following results are based on a randomized, double-blind triple-dummy trial to compare otamixaban to Unfractionated Heparin+eptifibatide, in patients with Unstable angina/Non ST segment Elevation Myocardial infarction scheduled to undergo an early invasive strategy.
Patient with non STE-segment elevation Acute Coronary Syndrome with the following symptoms: […]
UFH: 60 IU/Kg as IV bolus ([…]) followed by an IV infusion of 12 U/Kg/h (max 1000 IU/h) to maintain a PTT at 1.5 to 2.0 times control and at the time of the PCI additional boluses needed if the ACT is not in the range of 200-250 seconds. NB: In order for the study to be blinded, all aPTTs and ACTs performed in order to adjust Drug B (UFH/placebo) dosing will be performed using an encrypted Hemochron Signature Elite machine (or as a back-up, a local device with a third-party unblinded healthcare professional).
Eptifibatide: a single bolus of 180 mcg/kg followed by an infusion of 2 mcg/kg/min. In patients with CrCl<50 mL/min the infusion rate will be decreased to 1 mcg/kg/min.
Primary endpoint: Adjudicated composite of all-cause death and new myocardial infarction (MI) within 7 days following randomization
The events will be adjudicated by a blinded independent adjudication committee. Since the goal of treating acute ACS without persistent ST segment elevation is to prevent associated morbidity and mortality, death and myocardial infarction are considered to be the clinically most meaningful endpoints in therapeutic studies, whereas recurrent ischemia or refractory angina is of more uncertain clinical relevance (EMEA/CPCP/EWP/570/98; February 2008).
The primary endpoint has been defined as the double clinical efficacy endpoint (all cause death and Myocardial Infarction based on centrally adjudicated data) that will be assessed at Day 7. Further estimation of this endpoint will be done at Day 30, Day 90 and Day 180 (end of the follow up) to check persistence of effect as recommended by the EMEA guideline (EMEA/CPCP/EWP/570/98; February 2008).
Myocardial Infarction is considered to be a hard component of a combined efficacy endpoint for confirmatory clinical trials. The definition of Myocardial Infarction will be based on ACC/AHA, ESC and WHF consensus (J Am Coll Cardiol, 2007; 50:2173-2195; Eur Heart J, 2007, 28: 2525-2538): […]

acute coronary syndrome = settings: cited from earlier work
[8] = age 65 to 75 years, Ota. infusion 0.035 mg/Kg/h
[9] = age 65 to 75 years, Ota. infusion 0.070 mg/Kg/h
[10] = age 65 to 75 years, Ota. infusion 0.105 mg/Kg/h
[11] = age 65 to 75 years, Ota. infusion 0.140 mg/Kg/h
[12] = age 65 to 75 years, Ota. infusion 0.175 mg/Kg/h
[13] = age <65 years, Ota. infusion 0.035 mg/Kg/h
[14] = age <65 years, Ota. infusion 0.070 mg/Kg/h
[15] = age <65 years, Ota. infusion 0.105 mg/Kg/h
[16] = age <65 years, Ota. infusion 0.140 mg/Kg/h
[17] = age <65 years, Ota. infusion 0.175 mg/Kg/h
[18] = age older than 75 years, Ota. infusion 0.035 mg/Kg/h
[19] = age older than 75 years, Ota. infusion 0.070 mg/Kg/h
[20] = age older than 75 years, Ota. infusion 0.105 mg/Kg/h
[21] = age older than 75 years, Ota. infusion 0.140 mg/Kg/h
[22] = age older than 75 years, Ota. infusion 0.175 mg/Kg/h
[23] = creatinine clearance 30 to 50 ml/min, Ota. infusion 0.070 mg/Kg/h
[24] = creatinine clearance 30 to 50 ml/min, Ota. infusion 0.105 mg/Kg/h
[25] = creatinine clearance 30 to 50 ml/min, Ota. infusion 0.140 mg/Kg/h
[26] = creatinine clearance 30 to 50 ml/min, Ota. infusion 0.175 mg/Kg/h
[27] = creatinine clearance 50 to 80 ml/min, Ota. infusion 0.035 mg/Kg/h
[28] = creatinine clearance 50 to 80 ml/min, Ota. infusion 0.070 mg/Kg/h
[29] = creatinine clearance 50 to 80 ml/min, Ota. infusion 0.105 mg/Kg/h
[30] = creatinine clearance 50 to 80 ml/min, Ota. infusion 0.140 mg/Kg/h
[31] = creatinine clearance 50 to 80 ml/min, Ota. infusion 0.175 mg/Kg/h
[32] = creatinine clearance <30 ml/min, Ota. infusion 0.140 mg/Kg/h
[33] = creatinine clearance more than 80 ml/min, Ota. infusion 0.035 mg/Kg/h
[34] = creatinine clearance more than 80 ml/min, Ota. infusion 0.070 mg/Kg/h
[35] = creatinine clearance more than 80 ml/min, Ota. infusion 0.105 mg/Kg/h
[36] = creatinine clearance more than 80 ml/min, Ota. infusion 0.140 mg/Kg/h
[37] = creatinine clearance more than 80 ml/min, Ota. infusion 0.175 mg/Kg/h
[38] = dose arms from 0.105 to 0.175 mg/Kg/h (dose arm 3 to 5)

concentration of otamixaban in patients with renal impairment and in elderly patients [4]: higher concentration
Compound: COC(=O)C(Cc1cccc(C(=N)N)c1)[C@@H](C)NC(=O)c1ccc(-c2cc[n+]([O-])cc2)cc1 (mixture of isomers) [Otamixaban, (2R,3R)-2-(3-Carbamimidoyl-benzyl)-3-[4-(1-oxy-pyridin-4-yl)benzoylamino]-butyric acid methyl ester]
efficacy in models of thrombosis (thrombosis [1]): highly efficacious
factor Xa inhibition in patients (factor Xa): dose-dependent, rapid direct factor Xa inhibition
efficacy in models of thrombosis (thrombosis [2]): highly efficacious
inhibition of factor Xa assembled in the prothrombinase complex [3]: inhibited
efficacy in models of thrombosis (thrombosis [5]): highly efficacious
inhibition of free factor Xa (free factor Xa): inhibited
reduction of prothrombin fragments 1+2 versus unfractionated heparin [6]: reduced prothrombin fragments 1+2 significantly more than unfractionated heparin
patients who showed the endpoint of the study / patients in the group [7, 8]: 2/33
patients with endpoint in comparison with the whole number of patients in the group [7, 8]: (6.1%)
patients who showed the endpoint of the study / patients in the group [7, 9]: 11/186
patients with endpoint in comparison with the whole number of patients in the group [7, 9]: (5.9%)
patients who showed the endpoint of the study / patients in the group [7, 10]: 11/170
patients with endpoint in comparison with the whole number of patients in the group [7, 10]: (6.5%)
patients who showed the endpoint of the study / patients in the group [7, 11]: 9/182
patients with endpoint in comparison with the whole number of patients in the group [7, 11]: (4.9%)
patients who showed the endpoint of the study / patients in the group [7, 12]: 7/164
patients with endpoint in comparison with the whole number of patients in the group [7, 12]: (4.3%)
patients who showed the endpoint of the study / patients in the group [7, 13]: 5/74
patients with endpoint in comparison with the whole number of patients in the group [7, 13]: (6.8%)
patients who showed the endpoint of the study / patients in the group [7, 14]: 16/394
patients with endpoint in comparison with the whole number of patients in the group [7, 14]: (4.1%)
patients who showed the endpoint of the study / patients in the group [7, 15]: 8/394
patients with endpoint in comparison with the whole number of patients in the group [7, 15]: (2.0%)
patients who showed the endpoint of the study / patients in the group [7, 16]: 9/383
patients with endpoint in comparison with the whole number of patients in the group [7, 16]: (2.3%)
patients who showed the endpoint of the study / patients in the group [7, 17]: 16/401
patients with endpoint in comparison with the whole number of patients in the group [7, 17]: (4.0%)
patients who showed the endpoint of the study / patients in the group [7, 18]: 2/18
patients with endpoint in comparison with the whole number of patients in the group [7, 18]: (11.1%)
patients who showed the endpoint of the study / patients in the group [7, 19]: 4/96
patients with endpoint in comparison with the whole number of patients in the group [7, 19]: (4.2%)
patients who showed the endpoint of the study / patients in the group [7, 20]: 6/98
patients with endpoint in comparison with the whole number of patients in the group [7, 20]: (6.1%)
patients who showed the endpoint of the study / patients in the group [7, 21]: 6/93
patients with endpoint in comparison with the whole number of patients in the group [7, 21]: (6.5%)
patients who showed the endpoint of the study / patients in the group [7, 22]: 6/106
patients with endpoint in comparison with the whole number of patients in the group [7, 22]: (5.7%)
patients who showed the endpoint of the study / patients in the group ([7]; creatinine clearance 30 to 50 ml/min, Ota. infusion 0.035 mg/Kg/h): 0/7
patients who showed the endpoint of the study / patients in the group [7, 23]: 5/54
patients with endpoint in comparison with the whole number of patients in the group [7, 23]: (9.3%)
patients who showed the endpoint of the study / patients in the group [7, 24]: 8/46
patients with endpoint in comparison with the whole number of patients in the group [7, 24]: (17.4%)
patients who showed the endpoint of the study / patients in the group [7, 25]: 4/46
patients with endpoint in comparison with the whole number of patients in the group [7, 25]: (8.7%)
patients who showed the endpoint of the study / patients in the group [7, 26]: 3/48
patients with endpoint in comparison with the whole number of patients in the group [7, 26]: (6.3%)
patients who showed the endpoint of the study / patients in the group [7, 27]: 5/29
patients with endpoint in comparison with the whole number of patients in the group [7, 27]: (17.2%)
patients who showed the endpoint of the study / patients in the group [7, 28]: 9/188
patients with endpoint in comparison with the whole number of patients in the group [7, 28]: (4.8%)
patients who showed the endpoint of the study / patients in the group [7, 29]: 5/189
patients with endpoint in comparison with the whole number of patients in the group [7, 29]: (2.6%)
patients who showed the endpoint of the study / patients in the group [7, 30]: 6/192
patients with endpoint in comparison with the whole number of patients in the group [7, 30]: (3.1%)
patients who showed the endpoint of the study / patients in the group [7, 31]: 8/178
patients with endpoint in comparison with the whole number of patients in the group [7, 31]: (4.5%)
patients who showed the endpoint of the study / patients in the group ([7]; creatinine clearance <30 ml/min, Ota. infusion 0.035 mg/Kg/h): 0/2
patients who showed the endpoint of the study / patients in the group ([7]; creatinine clearance <30 ml/min, Ota. infusion 0.070 mg/Kg/h): 0/2
patients who showed the endpoint of the study / patients in the group ([7]; creatinine clearance <30 ml/min, Ota. infusion 0.105 mg/Kg/h): 0/0
patients who showed the endpoint of the study / patients in the group [7, 32]: 3/4
patients with endpoint in comparison with the whole number of patients in the group [7, 32]: 75.0%
patients who showed the endpoint of the study / patients in the group ([7]; creatinine clearance <30 ml/min, Ota. infusion 0.175 mg/Kg/h): 0/3
patients who showed the endpoint of the study / patients in the group [7, 33]: 3/79
patients with endpoint in comparison with the whole number of patients in the group [7, 33]: (3.8%)
patients who showed the endpoint of the study / patients in the group [7, 34]: 14/382
patients with endpoint in comparison with the whole number of patients in the group [7, 34]: (3.7%)
patients who showed the endpoint of the study / patients in the group [7, 35]: 10/378
patients with endpoint in comparison with the whole number of patients in the group [7, 35]: (2.6%)
patients who showed the endpoint of the study / patients in the group [7, 36]: 9/372
patients with endpoint in comparison with the whole number of patients in the group [7, 36]: (2.4%)
patients who showed the endpoint of the study / patients in the group [7, 37]: 14/392
patients with endpoint in comparison with the whole number of patients in the group [7, 37]: (3.6%)
subgroup analysis of clinical results (age, gender, creatinine clearance, body weight, management of the acute coronary syndrome) ([7]; demographic subgroups, baseline characteristics, invasive or medical management): consistency of the clinical results
anticoagulation based on rates of bailout and thrombotic complications ([7]; dose arms 0.035 mg/Kg/h and 0.070 mg/Kg/h (dose arms 1 and 2)): inadequate anticoagulation
effect on urgent revascularization or need for bailout [7, 38]: no demonstrable effect
rates of primary endpoint lower than UFH+Eptifibatide [7, 38]: 31-41%
efficacy, safety and tolerability in humans (acute coronary syndrome): efficacious, safe and well tolerated
